Data: ChEMBL document CHEMBL1250536, “Identification of small molecule inhibitors of telomerase activity through transcriptional regulation of hTERT and calcium induction pathway in human lung adenocarcinoma A549 cells” (2010)
Each block holds one compound with its values, some of them ahead of it. The source made the active and inactive calls. The rule behind the calls is not given here.

Experiments:
[1] = target: Telomerase reverse transcriptase (Homo sapiens) (UniProt O14746); test: Inhibition of telomerase in human A549 cells at 25 uM after 24 hrs by TRAP assay; format: cell-based
[2] = system: A549; test: Reduction of hTR mRNA expression in human A549 cells at 20 uM after 6 hrs by RT-PCR analysis; format: functional, cell-based
[3] = system: A549; test: Reduction of hTR mRNA expression in human A549 cells at up to 50 uM after 6 hrs by RT-PCR analysis; format: functional, cell-based
[4] = target: Telomerase reverse transcriptase (Homo sapiens) (UniProt O14746); test: Inhibition of telomerase in human A549 cells at 25 uM after 24 hrs by TRAP assay in presence of 20 uM of intracellular calcium chelator BAPTA-AM pretreated for 1 hr; format: cell-based
[5] = system: A549; test: Reduction of hTERT mRNA expression in human A549 cells after 6 hrs by RT-PCR analysis in presence of 20 uM of intracellular calcium chelator BAPTA-AM pretreated for 1 hr; format: functional, cell-based
[6] = target: Telomerase reverse transcriptase (Homo sapiens) (UniProt O14746); test: Inhibition of telomerase in human A549 cells after 24 hrs by TRAP assay; format: cell-based
[7] = target: Telomerase reverse transcriptase (Homo sapiens) (UniProt O14746); test: Inhibition of telomerase in human A549 cells at 25 uM after 24 hrs by TRAP assay in presence of 10 uM of MEK inhibitor U0126 pretreated for 1 hr; format: cell-based
[8] = system: A549; test: Reduction of hTERT mRNA expression in human A549 cells at 50 uM after 6 hrs by RT-PCR analysis; format: functional; design: scale not given: the % may be the effect or the level left
[9] = target: Telomerase reverse transcriptase (Homo sapiens) (UniProt O14746); test: Inhibition of telomerase in human A549 cells at 25 uM after 24 hrs by TRAP assay in presence of 20 uM of ERK inhibitor PD-98059 pretreated for 1 hr; format: cell-based
[10] = target: Telomerase reverse transcriptase (Homo sapiens) (UniProt O14746); test: Inhibition of telomerase in human A549 cells at 25 uM by TRAP assay; format: cell-based; conditions: TDE = time-dependent effect
[11] = target: Telomerase reverse transcriptase (Homo sapiens) (UniProt O14746); test: Inhibition of telomerase in human A549 cells at 25 uM after 24 hrs by TRAP assay in presence of 50 uM of MAPK inhibitor SB-203580 pretreated for 1 hr; format: cell-based
[12] = target: Telomerase reverse transcriptase (Homo sapiens) (UniProt O14746); test: Inhibition of telomerase in human A549 cells at 25 uM after 24 hrs by TRAP assay in presence of 20 uM of 26S proteasome inhibitor MG132 pretreated for 1 hr; format: cell-based
[13] = target: Telomerase reverse transcriptase (Homo sapiens) (UniProt O14746); test: Inhibition of telomerase in human A549 cells at 25 uM after 24 hrs by TRAP assay in presence of 50 uM of PI3 K inhibitor LY-294002 pretreated for 1 hr; format: cell-based
[14] = system: A549; test: Cytotoxicity against human A549 cells assessed as reduction of cell proliferation at 50 uM after 24 hrs by MTS assay; format: functional; design: scale not given: the % may be the effect or the level left
[15] = system: A549; test: Reduction of colony formation in human A549 cells at 12.5 uM after 24 hrs by anchorage-independence cell growth assay relative to control; format: functional; design: scale not given: the % may be the effect or the level left
[16] = system: A549; test: Reduction of hTERT protein expression in human A549 cells after 6 hrs by Western blotting; format: functional, cell-based
[17] = system: A549; test: Reduction of colony formation in human A549 cells at 6.25 uM after 24 hrs by anchorage-independence cell growth assay relative to control; format: functional; design: scale not given: the % may be the effect or the level left
[18] = system: A549; test: Translocation of hTERT from nuclei to cytoplasm in human A549 cells at 25 uM after 24 hrs by immunofluorescence assay; format: functional, cell-based
[19] = target: Telomerase reverse transcriptase (Homo sapiens) (UniProt O14746); test: Inhibition of telomerase in human A549 cells assessed as increase of intracellular calcium release after 24 hrs using Fluo-3 AM staining by microscopic analysis in presence of BAPTA-AM pretreated for 1 hr; format: cell-based
[20] = system: A549; test: Reduction of hTERT protein expression in human A549 cells at 25 uM after 24 hrs by immunofluorescence assay; format: functional, cell-based
[21] = system: A549; test: Reduction of hTERT protein expression in human A549 cells at 25 uM after 24 hrs by immunofluorescence assay in presence of intracellular calcium chelator BAPTA-AM pretreated for 1 hr; format: functional, cell-based
[22] = system: A549; test: Reduction of GADD153 mRNA expression in human A549 cells at up to 50 uM after 6 hrs by RT-PCR analysis; format: functional, cell-based
[23] = target: Telomerase reverse transcriptase (Homo sapiens) (UniProt O14746); test: Inhibition of telomerase in human A549 cells at 25 uM after 24 hrs by TRAP assay in presence of 20 nM of nuclear export inhibitor leptomycin B pretreated for 1 hr; format: cell-based
[24] = system: A549; test: Reduction of colony formation in human A549 cells at 25 uM after 24 hrs by anchorage-independence cell growth assay relative to control; format: functional; design: scale not given: the % may be the effect or the level left
[25] = system: A549; test: Reduction of hTERT mRNA expression in human A549 cells after 6 hrs by RT-PCR analysis; format: functional, cell-based
[26] = target: Telomerase reverse transcriptase (Homo sapiens) (UniProt O14746); test: Inhibition of telomerase in human A549 cells assessed as increase of intracellular calcium release after 24 hrs using Fluo-3 AM staining by microscopic analysis; format: cell-based
[27] = system: A549; test: Cytotoxicity against human A549 cells assessed as reduction of cell proliferation after 24 hrs by MTS assay; format: functional, cell-based

Chain of Telomerase reverse transcriptase (Homo sapiens) (O14746 whole entry): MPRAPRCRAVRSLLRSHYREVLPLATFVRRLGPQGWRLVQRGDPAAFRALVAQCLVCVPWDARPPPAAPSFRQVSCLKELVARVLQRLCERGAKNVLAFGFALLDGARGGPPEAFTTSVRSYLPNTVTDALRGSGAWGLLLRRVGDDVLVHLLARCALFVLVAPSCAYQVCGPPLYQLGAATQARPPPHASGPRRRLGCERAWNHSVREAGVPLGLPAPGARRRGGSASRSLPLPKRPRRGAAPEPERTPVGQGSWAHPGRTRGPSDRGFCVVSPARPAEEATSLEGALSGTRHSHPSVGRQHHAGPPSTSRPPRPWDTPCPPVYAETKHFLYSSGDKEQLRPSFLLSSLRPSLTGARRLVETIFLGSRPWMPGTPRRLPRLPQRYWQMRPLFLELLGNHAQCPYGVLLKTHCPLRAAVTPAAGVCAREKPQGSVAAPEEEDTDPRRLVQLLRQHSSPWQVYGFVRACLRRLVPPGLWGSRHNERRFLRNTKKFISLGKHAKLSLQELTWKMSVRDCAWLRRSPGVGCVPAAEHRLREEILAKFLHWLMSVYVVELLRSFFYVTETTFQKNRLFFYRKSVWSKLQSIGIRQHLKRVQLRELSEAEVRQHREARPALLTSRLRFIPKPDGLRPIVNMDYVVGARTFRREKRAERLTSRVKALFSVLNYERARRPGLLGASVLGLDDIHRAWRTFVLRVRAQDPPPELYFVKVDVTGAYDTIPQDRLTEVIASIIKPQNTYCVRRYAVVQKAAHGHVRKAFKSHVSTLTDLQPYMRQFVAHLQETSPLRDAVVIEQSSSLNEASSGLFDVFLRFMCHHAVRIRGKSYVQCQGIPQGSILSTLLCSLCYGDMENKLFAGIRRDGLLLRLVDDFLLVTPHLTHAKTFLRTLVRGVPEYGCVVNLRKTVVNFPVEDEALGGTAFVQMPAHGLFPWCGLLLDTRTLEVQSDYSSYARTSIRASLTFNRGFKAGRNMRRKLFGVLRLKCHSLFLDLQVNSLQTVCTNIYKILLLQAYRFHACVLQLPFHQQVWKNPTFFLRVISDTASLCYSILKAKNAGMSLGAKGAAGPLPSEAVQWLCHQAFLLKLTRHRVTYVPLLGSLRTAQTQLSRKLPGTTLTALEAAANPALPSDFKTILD

- inhibition [1]: inactive
Compound: COc1cc(O)c2c(c1OC)O[C@H](c1ccccc1)CC2=O

- inhibition [1]: inactive
Compound: C[C@H]1O[C@H](Oc2cc(O)c3c(=O)c(O[C@H]4O[C@H](C)[C@@H](O[C@H]5O[C@H](CO)[C@@H](O)[C@H](O)[C@H]5O)[C@H](O)[C@@H]4O)c(-c4ccc(O)cc4)oc3c2)[C@@H](O)[C@@H](O)[C@@H]1O

- inhibition [1]: inactive
Compound: COc1cc(OC)c2c(c1)O[C@H](c1ccccc1)CC2=O

- inhibition [1]: inactive
Compound: COC[C@H](Cc1ccc(OC)c(OC)c1)[C@H](COC)Cc1ccc(OC)c(OC)c1

- inhibition [1]: inactive
Compound: COc1c(O)cc(C(=O)O)cc1O

- inhibition [1]: Active
Compound: COc1ccc(/C=C/C(=O)c2cc(OC)c(OC)c(OC)c2)cc1OC

- inhibition [4]: inactive
- inhibition [6]: Dose-dependent effect
- inhibition [7]: Active
- inhibition [9]: Active
- inhibition [10]: tde
- inhibition [11]: Active
- inhibition [12]: Active
- inhibition [13]: Active
- inhibition [1]: Active
- inhibition [19]: inactive
- inhibition [23]: Active
- inhibition [26]: Dose-dependent effect
Compound: COc1cc(O)c(C(=O)/C=C/c2cccc(OC)c2OC)c(OC)c1
- Activity [2]: inactive
- Activity [3]: inactive
- Activity [5]: inactive
- Activity [8]: 92%
- Activity [14]: 59%
- Activity [15]: 96%
- Activity [16]: Dose-dependent effect
- Activity [17]: 23%
- Activity [18]: inactive
- Activity [20]: Active
- Activity [21]: inactive
- Activity [22]: inactive
- Activity [24]: 70%
- Activity [25]: Dose-dependent effect
- Activity [27]: Dose-dependent effect

- inhibition [1]: Active
Compound: COc1cc(/C=C/C(=O)c2cc(OC)c(OC)c(OC)c2)cc(OC)c1OC

- inhibition [1]: Active
Compound: COc1cccc(/C=C/C(=O)c2cc(OC)c(OC)c(OC)c2)c1OC

Compound: COc1ccc(/C=C2/COc3cc(O)ccc3C2=O)cc1
- inhibition [1]: Active

- inhibition [1]: inactive
Compound: COc1cc(C(=O)/C=C/c2ccc(N(C)C)cc2)cc(OC)c1OC
